# Measured values as given in ChEMBL document CHEMBL1137879, “The development of new bicyclic pyrazole-based cytokine synthesis inhibitors” (Bioorg Med Chem Lett, 2004).
# Columns and labels:
# THP-1 = assay: Concentration required to inhibit production of Tumor necrosis factor, alpha in LPS-stimulated human monocytic cells (THP-1); type: functional, cell-based
# [1] = molecular target: Mitogen-activated protein kinase 14 (Homo sapiens, UniProt Q16539); assay: Inhibition of human Mitogen-activated protein kinase p38 alpha
# Chain of Mitogen-activated protein kinase 14 (Q16539 whole entry): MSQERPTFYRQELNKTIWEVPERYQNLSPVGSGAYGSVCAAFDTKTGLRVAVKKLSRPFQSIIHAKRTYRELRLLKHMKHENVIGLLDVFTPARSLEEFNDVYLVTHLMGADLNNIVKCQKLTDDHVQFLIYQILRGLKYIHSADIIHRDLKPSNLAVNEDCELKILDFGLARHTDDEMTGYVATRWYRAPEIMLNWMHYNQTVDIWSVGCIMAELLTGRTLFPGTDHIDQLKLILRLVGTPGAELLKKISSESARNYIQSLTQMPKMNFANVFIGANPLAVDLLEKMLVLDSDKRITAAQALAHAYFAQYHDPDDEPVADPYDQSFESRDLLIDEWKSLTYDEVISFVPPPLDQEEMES
Compound,IC50 (THP-1) [nM],IC50 [1] [nM]
Fc1ccc(-c2c(-c3ccnc(Oc4ccccc4)n3)nn3c2OCCC3)cc1,> 10000,6600
Fc1ccc(-c2c(-c3ccnc(Oc4ccccc4)n3)nn3c2OCC3)cc1,300,2200
C[C@@H](Nc1nccc(-c2nn3c(c2-c2ccc(F)cc2)OCC3)n1)c1ccccc1,> 2000,11200
COC[C@@H](C)Nc1nccc(-c2nn3c(c2-c2ccc(F)cc2)OCC3)n1,1700,280
CCOCn1nnc(-c2ccncc2)c1-c1ccc(F)cc1,–,310
Oc1[nH]nc(-c2ccncc2)c1-c1ccc(F)cc1,3100,320
Fc1ccc(-c2c(-c3ccncc3)nn3c2OCCC3)cc1,3100,460
CC[C@@H](C)Nc1nccc(-c2nn3c(c2-c2ccc(F)cc2)OCC3)n1,80,360
